# Assays:
# Interleukin 8 = assay: release of Interleukin 8 by keratinocytes NHK stimulated with PMA + calcium ionophore A23187 (ELISA); type: cell-based, human; settings: for % inhibition of IL-8 release: 3 μg/ml, keratinocytes, PMA + A23187 6 hours; for % Inhibition a 3 μg/ml: IL8 release, NHK, PMA + A23187
# Protocol: In this study, carried out using 96 well plates, we evaluated the activity of hydroxyl alkine acids on the production of Interleukin 8 produced in the keratinocytes by phorbol ester PMA and calcium ionophore A23187.
# A suspension of keratinocytes in supplemented KSFM was divided between 96 well plates (3.10^4 cells/wells) and incubated for 16 hours at 37° C. under an atmosphere of 5% CO2. The keratinocytes were then rinsed with PBS in order to eliminate non adhering cells then exposed to the products to be tested included in non supplemented KSFM (which could interfere with the assay).
# The concentration tested in culture was 3 μg/ml. This was retained after a preliminary test to evaluate cytotoxicity (neutral red) and is not cytotoxic.
# 3 wells were used for each treatment. Cells were preincubated for 60 minutes with the products to be tested then stimulated, in parallel to negative controls without stimulant: Phorbol Myristate Acetate (PMA) 1 μm+Calcium ionophore (A23187) 0.1 μm.
# Incubation for 6 hours at 37° C. in a humid air atmosphere containing 5% CO2.
# The culture medium for each of the wells was recovered, centrifuged at 3000 rpm and stored at −80° C.
# Cytokine assay: IL8 was assayed using the ELISA kit immunoenzyme method (immunotech).
# The results are given as percentage activity/stimulated control.
# The compounds according to the invention were evaluated in terms of anti-inflammatory activity on the release of Interleukin 8 by human keratinocytes NHK stimulated by phorbol ester PMA+calcium ionophore A23187.
# prostaglandin 6KF1α = assay: production of prostaglandin 6KF1α by keratinocytes stimulated with calcium ionophore A23187 (ELISA); type: cell-based; settings: 3 μg/ml, A23187 1 μm 5 hours
# Protocol: A suspension of keratinocytes in DMEM 10% foetal calf serum was divided into 6 well plates (1.2. 106cells/wells) and incubated for 16 hours at 37° C. in a 5% CO2 atmosphere. The keratinocytes were then rinsed with PBS in order to eliminate non adhering cells then exposed to the products to be tested included in DMEM without foetal calf serum (which could interfere with the assay).
# The concentration tested in culture was 3 μg/ml. This was retained as the test concentration after a preliminary evaluation test for cytotoxicity (neutral red) and is not cytotoxic.
# For each treatment, three wells were tested. Cells were pre-incubated for 60 minutes with the products to be tested then a stimulating agent was added to stimulate the arachidonic acid cascade (calcium ionophore) which was added for 5 hours: calcium ionophore A23187 was used at a concentration of 1 μm.
# After 5 hours in culture, the culture medium for each well was recovered, centrifuged at 3000 rpm and stored at −80° C.
# The production of prostaglandin 6KF1α for each of the tests was measured using a EUROMEDEX Elisa Kit.
# Results are expressed as the percentage activity/stimulated control.
# [1] = tested on: intracellular AOSs, fibroblast line L929; assay: in vitro assay of intracellular AOSs (H2DCF-DA probe) after H2O2/iron oxidative stress; type: cell-based, murin; settings: pre-incubation 3 h, L929
SMILES,% inhibition of IL-8 release (Interleukin 8),% inhibiting activity of evaluated molecules on the production of PG6KF1α Inflammation (prostaglandin 6KF1α),Percentage inhibition of the intracellular production of AOS ([1]; 0.02 ng/ml) [%],Percentage inhibition of the intracellular production of AOS ([1]; 0.2 ng/ml) [%],Percentage inhibition of the intracellular production of AOS ([1]; 2 ng/ml) [%],Percentage inhibition of the intracellular production of AOS ([1]; 20 ng/ml) [%],% Inhibition a 3 μg/ml (Interleukin 8) [%]
"O=C(O)C(F)=CCCCCCO (mixture of isomers) [n=4, R=H, Rn=H, R1=F]",Non-active,30%,10,6,−4,−36,
"O=C(O)C=CCCCCO [n=3, R=H, Rn=H, R1=H]",50%,29%,21,15,11,14,
"O=C(O)C=CCCCCCO [n=4, R=H, Rn=H, R1=H]",15%,,17,9,9,0,
"O=C(O)/C=C/CCCCCCCCCCO [n=9, R=H, Rn=H, R1=H, 13-hydroxy-tridec-2t-enoic acid]",16%,31%,9,10,6,−22,
"O=C(O)C(F)=CCCCCCCCCCCCO [n=10, R=H, Rn=H, R1=F, 14-hydroxy-tetradec-2-fluoro-2-enoic acid]",30%,18%,29,16,0,−19,
"O=C(O)/C=C/CCCCCCCCCCCO [n=10, R=H, Rn=H, R1=H, 14-hydroxy-tetradec-2t-enoic acid]",30%,Non active,11,4,−20,−34,
"O=C(O)C(F)=CCCCCCCCCCCCCCCO [n=13, R=H, Rn=H, R1=F, 17-hydroxy-heptadec-2-fluoro-2-enoic acid]",107%,14%,36,28,14,−9,107
"O=C(O)/C=C/CCCCCCCCCCCCCCO [n=13, R=H, Rn=H, R1=H, 17-hydroxy-heptadec-2t-enoic acid]",62%,25%,3,13,−1,−10,62

# Source: patent US8158811B2, “Unsaturated fatty hydroxy acid derivatives and the dermocosmetologic use thereof” (Pierre Fabre Dermo-Cosmetique, priority 2005, dated 2012)
